Where two headings read alike, the source gives them in different places.
Key:
[1] = system: RNA Polymerase II Serine 5 phosphorylation (Rpb1 CTD, downstream substrate of CDK7) in A549 cells; assay: Imaging-based cellular RNA PolII Ser5 phosphorylation assay in A549 cells; format: cell-based, human; settings: wild-type CDK7, RNA PolII Ser5 phosphorylation, averaged over all measurements; for IC50: Homo sapiens, A549, A549 cells, read-out: CDK7_A549 Wild-type CDK7 (pIC50) (converted); for CDK7_A549 Wild-type CDK7 (pIC50): A549 cells
Summary of the method: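 A549 cells, seeded 1000/well in DMEM with 1% FBS and cultured 20 h, were treated with compound for 3 h at 37 °C. Ser5-phospho-Rpb1 CTD detected by immunofluorescence imaging after fixation and methanol permeabilization; IC50 from curve fit normalized to DMSO and 10 μM reference-compound controls.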

[2] = target: CDK7/cyclinH/MAT1 trimeric complex (Homo sapiens, UniProt P50613); assay: In vitro CDK7 assay, potency of irreversible covalent inhibitors (kinact/KI), coupled PK/LDH ADP readout at 340 nm
Chain of CDK7/cyclinH/MAT1 trimeric complex (P50613 whole entry): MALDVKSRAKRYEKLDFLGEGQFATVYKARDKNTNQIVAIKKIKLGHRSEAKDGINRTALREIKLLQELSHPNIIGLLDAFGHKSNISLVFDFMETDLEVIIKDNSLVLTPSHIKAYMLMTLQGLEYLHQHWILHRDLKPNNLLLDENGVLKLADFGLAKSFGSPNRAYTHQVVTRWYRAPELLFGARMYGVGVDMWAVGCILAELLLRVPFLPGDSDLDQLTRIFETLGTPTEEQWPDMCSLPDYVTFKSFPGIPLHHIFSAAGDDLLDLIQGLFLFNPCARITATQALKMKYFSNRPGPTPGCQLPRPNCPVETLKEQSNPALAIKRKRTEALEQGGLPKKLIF
Chain of CDK7/cyclinH/MAT1 trimeric complex (P51946 whole entry partner): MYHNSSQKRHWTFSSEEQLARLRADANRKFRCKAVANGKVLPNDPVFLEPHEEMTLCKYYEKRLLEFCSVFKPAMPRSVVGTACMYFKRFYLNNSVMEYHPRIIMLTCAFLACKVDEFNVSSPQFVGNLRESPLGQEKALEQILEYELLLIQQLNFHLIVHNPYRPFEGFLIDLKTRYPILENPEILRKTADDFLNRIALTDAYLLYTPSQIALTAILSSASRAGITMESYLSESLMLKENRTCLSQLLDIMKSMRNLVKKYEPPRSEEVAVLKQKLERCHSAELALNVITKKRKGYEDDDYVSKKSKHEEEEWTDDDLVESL
Chain of CDK7/cyclinH/MAT1 trimeric complex (P51948 whole entry partner): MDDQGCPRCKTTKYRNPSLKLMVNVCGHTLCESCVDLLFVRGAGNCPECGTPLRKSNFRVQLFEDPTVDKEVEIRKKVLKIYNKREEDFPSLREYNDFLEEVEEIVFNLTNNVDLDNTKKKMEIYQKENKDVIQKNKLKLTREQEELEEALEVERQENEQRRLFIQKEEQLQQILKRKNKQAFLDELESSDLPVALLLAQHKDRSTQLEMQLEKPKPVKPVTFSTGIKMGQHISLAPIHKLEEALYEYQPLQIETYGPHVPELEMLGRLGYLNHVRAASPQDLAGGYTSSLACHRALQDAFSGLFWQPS

[3] = system: RNA Polymerase II Serine 5 phosphorylation in A549 cells overexpressing CDK7-mutant (C312S); assay: Imaging-based cellular RNA PolII Ser5 phosphorylation assay in A549 cells overexpressing CDK7-mutant (C312S); format: cell-based, human; settings: RNA PolII Ser5 phosphorylation, averaged over all measurements; for IC50: Homo sapiens, A549, A549 cells overexpressing CDK7-mutant (C312S), read-out: CDK7_A549 mutant hCDK7(pIC50) (converted); for CDK7_A549 mutant hCDK7(pIC50): A549 cells overexpressing CDK7-mutant (C312S)
Summary of the method: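 A549 cells overexpressing CDK7 C312S (with endogenous wild-type CDK7) were treated with compound for 3 h at 37 °C in 1% FBS medium. Phospho-Rpb1 CTD Ser5 was immunostained after fixation and imaged. IC50 came from curve fit of % control, normalised to DMSO and 10 μM reference-compound controls.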

[4] = CDK7 (20 nM enz.) (KI, μM), 20 nM enzyme
[5] = read-out: CDK7 (20 nM enz.) (kinact, s^−1), 20 nM enzyme
[6] = read-out: CDK7 (20 nM enz.) (kinact/KI, M^−1*s^−1), 20 nM enzyme
[7] = read-out: CDK7 (kinact/KI, M^−1*s^−1), potency of irreversible covalent inhibitors, 1 mM ATP, room temperature, averaged values over all measurements
[8] = read-out: CDK7 (20 nM enz.) (kobs/[I], M^−1*s^−1), 20 nM enzyme
[9] = CDK7 (KI(μM)), […], 1 mM ATP, room temperature, averaged values over all measurements
[10] = read-out: CDK7 (kinact, s^−1), kinact = maximal rate of inactivation, 1 mM ATP, room temperature, averaged values over all measurements

SMILES | IC50 [1] [nM] | Ki [2, 4] [µM] | kinact [2, 5] [s⁻¹] | kinact/KI [2, 6] [M⁻¹ s⁻¹] | IC50 [3] [nM] | other results
C#CCOc1cc(C(=O)Nc2ccc3c(c2)Nc2nccc(C4CCOCC4)c2CO3)ccc1NC(=O)C=C [Compound 8] | 120 | 0.0321 | 5.8e-05 | 1810 | > 10000 | kinact/KI [2, 7]: 1530 M⁻¹ s⁻¹
C=CC(=O)N1CC(N2CCC(c3ccc4c(c3)Nc3nccc(C5CCOCC5)c3[C@H](C)O4)CC2)C1 (single isomer, unassigned) [Compound 104] | 1170 | 0.431 | 4.85e-05 | 112 | > 10000 | –
C=CC(=O)N1CCC(N2CC(c3cc4c(c(C#N)n3)O[C@H](C)c3c(N5CCOCC5)ccnc3N4)C2)CC1 (single isomer, unassigned) [Compound 489] | 58.9 | – | – | 305 | 3470 | –
CC#CC(=O)N1CCC(N2CCC(c3cc4c(c(C)n3)O[C@@H](C)c3c(N5CCOCC5)ccnc3N4)CC2)CC1 (single isomer, unassigned) [Compound 426] | 63.1 | 0.642 | 4.43e-05 | 69 | > 10000 | –
CC#CC(=O)N1CCC(n2ccc(-c3cc4c(c(C)n3)OCc3c(N5CCOCC5)ccnc3N4)cc2=O)CC1 [Compound 414] | 251 | 0.0611 | 4.36e-05 | 714 | > 10000 | –
C=CC(=O)N1CC(N2CC[C@H](c3ccc4c(c3)Nc3nccc(N5CCOCC5)c3CO4)[C@@H](F)C2)C1 (single isomer, unassigned) [Compound 109] | – | – | – | – | – | CDK7_A549 Wild-type CDK7 (pIC50) [1]: 5.55; CDK7 (20 nM enz.) (kinact, s^−1) ([2]; 20 nM enzyme): 1.425e-05 s⁻¹; CDK7 (20 nM enz.) (kinact/KI, M^−1*s^−1) ([2]; 20 nM enzyme): 5.9 M⁻¹ s⁻¹; Ki ([2]; read-out: CDK7 (20 nM enz.) (KI), 20 nM enzyme): 2.42 µM; CDK7_A549 mutant hCDK7(pIC50) [3]: <5
C=CC(=O)N1CC(N2CCC(c3ccc4c(c3)Nc3nccc(N5CCCOCC5)c3CO4)CC2)C1 [Compound 53] | 186 | – | – | – | > 10000 | kinact/KI [2, 7]: 773 M⁻¹ s⁻¹
C=CC(=O)Nc1cc(-c2ccc3c(c2)Nc2nccc(N4CCOCC4)c2CO3)ccn1 [Compound 24] | 52.5 | – | – | 1250 | 6920 | kinact/KI [2, 7]: 21.5 M⁻¹ s⁻¹
C#Cc1cc2c(cc1C1CCN(C3CN(C(=O)C=C)C3)CC1)Nc1nccc(N3CCOCC3)c1CO2 [Compound 175] | 240 | 0.0695 | 4.03e-05 | 580 | > 10000 | –
C=CC(=O)N1CC(N2CCC(c3ccc4c(c3)Nc3nccc(-c5cnn(C)c5)c3[C@H](C)O4)CC2)C1 (single isomer, unassigned) [Compound 232] | 4170 | 10.1 | 0.000115 | 11.3 | > 10000 | –
C=CC(=O)N1CC(N2CCC(c3cc4c(cn3)OCc3c(C5CCOCC5)ccnc3N4)CC2)C1 [Compound 130] | 97.7 | 0.11 | 7.73e-05 | 704 | > 10000 | –
C#Cc1cc2c(cc1C1CCN(C3CN(C(=O)C=C)C3)CC1)Nc1nccc(N3CCOCC3)c1C(C)O2 (stereo not drawn) [Compound 161] | 123 | 0.0363 | 3.09e-05 | 851 | > 10000 | –
C=CC(=O)N1CC[C@H](N2CC(c3cc4c(c(C)n3)OCc3c(-c5cnn(C)c5)ccnc3N4)C2)[C@@H](F)C1 (mixture of isomers) [Compound 212] | 398 | 0.2 | 2.94e-05 | 147 | > 10000 | –
C=CC(=O)N1CC[C@@H](N2CC(c3cc4c(c(C5CC5)n3)O[C@@H](C)c3c(N5CCOCC5)ccnc3N4)C2)C1 (single isomer, unassigned) [Compound 467] | 117 | 0.0121 | 3.18e-05 | 2630 | > 10000 | –
C=CC(=O)N1CC(N2CCC(c3ccc4c(c3)Nc3nccc(-c5cnn(C)c5)c3[C@@H](C)O4)CC2)C1 (single isomer, unassigned) [Compound 233] | 28.2 | – | – | – | 8710 | kinact/KI [2, 8]: 1450 M⁻¹ s⁻¹
C=CC(=O)N1CC[C@@H](N2CC(c3cc4c(c(C)n3)OCc3c(N5CCOCC5)ccnc3N4)C2)[C@H](F)C1 (mixture of isomers) [Compound 220] | 631 | 0.114 | 2.74e-05 | 240 | > 10000 | –

SMILES | IC50 [1] [nM] | Ki [2, 4] [µM] | kinact [2, 5] [s⁻¹] | kinact/KI [2, 6] [M⁻¹ s⁻¹] | IC50 [3] [nM] | other results
C=CC(=O)N1CC(N2CCCC(c3ccc4c(c3)Nc3nccc(N5CCOCC5)c3CO4)CC2)C1 (stereo not drawn) [Compound 42] | 123 | – | – | – | > 10000 | Ki [2, 9]: 0.0811 µM; kinact [2, 10]: 6.17e-05 s⁻¹; kinact/KI [2, 7]: 761 M⁻¹ s⁻¹
C=CC(=O)N1CC[C@@H](N2CC(c3cc4c(c(C#N)n3)O[C@@H](C)c3c(N5CCOCC5)ccnc3N4)C2)C1 (single isomer, unassigned) [Compound 509] | 2400 | 1.28 | 1.85e-05 | 14.5 | > 10000 | –
C=CC(=O)N1CC[C@@H](N2CCC(c3cc(C)c4c(c3)Nc3nccc(-c5cnn(C)c5)c3CO4)CC2)C1 (single isomer, unassigned) [Compound 134] | 38 | – | – | – | ~8710 | kinact/KI [2, 8]: 1530 M⁻¹ s⁻¹
C=CC(=O)N1CCC(N2CC(c3ccc4c(c3)Nc3nccc(C5CCOCC5)c3CO4)C2)CC1 [Compound 36] | – | 0.092 | 4.92e-05 | – | – | CDK7_A549 Wild-type CDK7 (pIC50) [1]: 6.89; CDK7 (20 nM enz.) (kinact/KI, M^−1*s^−1) ([2]; 20 nM enzyme): 535 M⁻¹ s⁻¹; CDK7_A549 mutant hCDK7(pIC50) [3]: 5.04
C=CC(=O)N1CC[C@@H](N2CC(c3cc4c(c(C5CC5)n3)OCc3c(N5CCOCC5)ccnc3N4)C2)C1 (single isomer, unassigned) [Compound 323] | 83.2 | 0.0217 | 6.41e-05 | 2950 | 7940 | –
C=CC(=O)N1CC(N2CCC(c3ccc4c(c3)Nc3ncc(F)c(N5CCOCC5)c3CO4)CC2)C1 [Compound 151] | 34.7 | 0.0205 | 4.67e-05 | 2280 | > 10000 | –
C=CC(=O)N1CC[C@H](N2CC(c3cc4c(c(C5CC5)n3)O[C@H](C)c3c(N5CCOCC5)ccnc3N4)C2)C1 (single isomer, unassigned) [Compound 463] | 1050 | 0.423 | 3.44e-05 | 81.3 | > 10000 | –
C=CC(=O)N1CC(N2CC[C@@H](c3cc4c(c(C)n3)O[C@@H](C)c3c(N5CCOCC5)ccnc3N4)C2)C1 (single isomer, unassigned) [Compound 392] | 129 | 0.0655 | 5.4e-05 | 823 | ~10000 | –
C=CC(=O)N1CC(N2CC[C@@H](c3ccc4c(c3)Nc3nccc(N5CCOCC5)c3CO4)C(C)(C)C2)C1 (single isomer, unassigned) [Compound 69] | 234 | – | – | – | > 10000 | kinact/KI [2, 8]: 529 M⁻¹ s⁻¹
CC#CC(=O)N1CCN(C2CCN(c3cc4c(c(C)n3)OCc3c(N5CCOCC5)ccnc3N4)CC2)CC1 [Compound 396] | 93.3 | 0.0643 | 5.18e-05 | 807 | > 10000 | –
CC#CC(=O)N1CC(n2cc(-c3cc(C#N)c4c(c3)Nc3nccc(N5CCOCC5)c3[C@H](C)O4)cn2)C1 (single isomer, unassigned) [Compound 449] | 33.1 | – | – | – | 2340 | kinact/KI [2, 8]: 328 M⁻¹ s⁻¹
C=CC(=O)N1CCC(N2CC(c3cc4c(c(-c5ncc[nH]5)n3)OCc3c(N5CCOCC5)ccnc3N4)C2)CC1 [Compound 366] | 209 | – | – | – | 10700 | kinact/KI [2, 8]: 339 M⁻¹ s⁻¹
C=CC(=O)N1CC(c2cc(-c3ccc4c(c3)Nc3nccc(N5CCOCC5)c3CO4)ccn2)C1 [Compound 58] | 490 | – | – | – | > 10000 | Ki [2, 9]: 0.112 µM; kinact [2, 10]: 5.76e-05 s⁻¹; kinact/KI [2, 7]: 516 M⁻¹ s⁻¹
C=CC(=O)N1CC[C@H](N2CCC(c3cc4c(c(C)n3)OCc3c(N5CCOCC5)ccnc3N4)CC2)C1 (single isomer, unassigned) [Compound 183] | 56.2 | 0.0731 | 5.78e-05 | 791 | > 10000 | –
C=CC(=O)N1CC[C@H](N2CC(c3cc(C)c4c(c3)Nc3nccc(-c5cnn(C)c5)c3CO4)C2)C1 (single isomer, unassigned) [Compound 192] | 79.4 | 0.0907 | 4.14e-05 | 456 | > 10000 | –

— patent US20240254138A1, “TRICYCLIC PYRIMIDINES AS CYCLIN-DEPENDENT KINASE 7 (CDK7) INHIBITORS” (JANSSEN PHARMACEUTICA NV, priority 2021, published 2024)
